# Test results published in patent US6451971B1, “Physiologically active peptides” (Hisamitsu Pharmaceutical Co., Ltd., priority 1999, dated 2002).
# Entries after “also recorded” stand apart in the source; their conditions may differ. Where no end group is shown, it is not given here.
# Columns and labels:
# [1] = test system: human fibrosarcoma HT1080; test: Cell adhesion (spreading) inhibitory activity on anchorage-dependent HT1080 cells; type: cell-based; settings: fibronectin- or vitronectin-coated plates, biotinylated peptide 50 to 200 μg/ml, 60 min
# Experimental: (§1) The human melanoma A375SM cells and human fibrosarcoma HT1080 (both available from ATCC), which are anchorage-dependent cells, were used in the evaluation. Cell adhesion inhibitory activity was evaluated according to the method of Fukai et al. as described in Biochem. Biophys. Res. Commun., 220, 394-398, 1996. The number of spread cells was counted as an index of the cell adhesion inhibitory activity.
# (§2) A375SM cells or HT1080 cells were prepared to 2×10^5/ml in Dulbecco's Modified Eagle Medium (DMEM: GIBCO BRL) containing 0.1% Ovalbumin (Wako Pure Chemical Industries, Ltd.). This cell suspension (100 μl) was added to 96-well plates that had been coated with fibronectin or vitronectin (VN), which are one kind of extracellular matrix, and incubated at 37° C. under 5% CO2 for 60 min. Concurrently with addition of the cell suspension, the biotinylated peptide as synthesized in Example 1 was added to the plates to give a final concentration of from 50 to 200 μg/ml. […] FN and VN coatings were carried out by adding to each well, FN or VN phosphate buffered saline (100 μl) that had been prepared to 0.5 μg/ml, by conducting incubation at 37° C. under 5% CO2 for 60 min and then by washing the well with phosphate buffered saline 3 times. […]
# [2] = test system: human melanoma A375SM cells; test: Cell adhesion (spreading) inhibitory activity on anchorage-dependent A375SM cells; type: cell-based; settings: fibronectin- or vitronectin-coated plates, biotinylated peptide 50 to 200 μg/ml, 60 min
# Experimental: as §1, §2
# [3] = test system: K562 cell line derived from human chronic myelocytic leukemia; test: Cell adhesion inhibitory activity on Mn2+-treated anchorage-independent K562 cells on fibronectin-coated plates; type: cell-based; settings: for cell adhesion inhibitory activity (alanine scanning): K562 cells, biotinylated peptides of Table 1, conducted similarly to Example 2, FIG. 6
# Description: (§3) (Danen et al., J. Biol. Chem., 270, 37, 21612, 1995; Mould et al., J. Biol. Chem., 270, 44, 26270, 1995.) This allows the cells to acquire adhesiveness to the extracellular matrices mediated by integrins. Such experimental induction of adhesion can be utilized as models for cell adhesion in the processes of metastatis of cancer cells and infiltration of inflammatory cells into tissues.
# (§4) The K562 cell line derived from human chronic myelocytic leukemia, U937 cell line derived from human hystiocytic lymphoma and Ramos cell line derived from human Burkitt's lymphoma (all available from American Type Tissue Culture Collection-ATCC), which are one kind of anchorage-independent cells, were then treated with Mn^2+ to prepare a system, where the cell adhesion inhibitory activity of the peptides was evaluated.
# Ninety six well plates were coated with fibronectin, which is one kind of extracellular matrix: fibronectin (FN) was prepared by the method of Fukai et al., J. Biol. Chem., 266, 8807, 1991. After cells were suspended to a cell density of 2×10^5/ml in a HEPES buffered physiological saline containing 0.1 mM Mn^2+, the cells (100 μl) were added to the plate and incubated at 37° C. under 5% CO2 for 60 min. Concurrently with addition of the cell suspension, the biotinylated peptide as synthesized in Example 1 (the amino acid sequence of the peptide portion is set forth in SEQ ID NO: 2) was added to the plate to give a final concentration of from 50 to 200 μg/ml. […] As a negative control, the group to which only biotin (unbound with the peptide) had been added was also evaluated.
# FN coating was carried out by adding to each well, FN phosphate buffer (100 μl) that had been prepared to 10 μg/ml, by conducting incubation at 37° C. under 5% CO2 for 60 min and then by washing the well with phosphate buffer 3 times. After cells in each well were fixed with 5% formaldehyde (Wako Pure Chemical Industries, Ltd.), unbound cells were removed and five areas were randomly selected in each well to count the cells under a microscope.
# The alanine scanning method is a technique that is used to identify amino acid sequence regions essential to physiological activities of proteins and peptides. (Puffer et al., J. Virol., 71, 6541, 1997; Wu and Hersh, J. Biol. Chem., 270, 49, 29111, 1995.) This method was then employed to analyze the present peptides. The peptides listed in Table 1, all of which were biotinylated (Example 1), were used in the experiments. For evaluation, the K562 cells derived from human chronic myelocytic leukemia, which was one kind of anchorage-independent cell, were used.
# Evaluation of the cell adhesion inhibitory activity was conducted similarly to Example 2.
# [4] = test system: U937 cell line derived from human hystiocytic lymphoma; test: Cell adhesion inhibitory activity on Mn2+-treated anchorage-independent U937 cells on fibronectin-coated plates; type: cell-based; settings: U937 cells in 0.1 mM Mn2+, biotinylated peptide 50 to 200 μg/ml, 60 min, adherent cells counted
# Description: as §3, §4
# (§5) Ninety six well plates were coated with fibronectin, which is one kind of extracellular matrix: fibronectin (FN) was prepared by the method of Fukai et al., J. Biol. Chem., 266, 8807, 1991. After cells were suspended to a cell density of 2×10^5/ml in a HEPES buffered physiological saline containing 0.1 mM Mn^2+, the cells (100 μl) were added to the plate and incubated at 37° C. under 5% CO2 for 60 min. […] As a negative control, the group to which only biotin (unbound with the peptide) had been added was also evaluated. […]
# [5] = test system: Ramos cell line derived from human Burkitt's lymphoma; test: Cell adhesion inhibitory activity on Mn2+-treated anchorage-independent Ramos cells on fibronectin-coated plates; type: cell-based; settings: Ramos cells in 0.1 mM Mn2+, biotinylated peptide 50 to 200 μg/ml, 60 min, adherent cells counted
# Description: as §3, §4, §5
# [6] = Saiki et al., Jpn. J. Cancer Res., 84, 558, 1993; cited from earlier work
# [7] = Saiki et al., Jpn. J. Cancer Res., 84, 558, 1993; cited from earlier work; remark: listed apart in the source
# melanoma cells = settings: Humphries, Science 233, 467, 1986; cited from earlier work
substance,measurement,setting,value
SEQ ID NO: 10: known peptide possessing cell adhesion inhibitory activity (Japanese Unexamined Patent Application Hei 10-147600); sequence not printed in the text (TEATIYGLEPGTEYTIYVIAL) [reference compound],cell adhesion inhibitory action (number of spread cells),[1],had a cell adhesion inhibitory action; also recorded: possesses a cell spreading inhibitory action
same,cell adhesion inhibitory action (number of spread cells),[2],had a cell adhesion inhibitory action; also recorded: possesses a cell spreading inhibitory action
Gly Leu Lys Pro Gly Val Asp Tyr Thr Ile Thr Val Tyr Ala Ala (GLKPGVDYTITVYAA; also: biotinylated (place not given here)) [SEQ ID NO: 9],cell adhesion inhibitory activity (alanine scanning),[3],equal to or greater than the cell adhesion inhibitory activity of the peptide set forth in SEQ ID NO: 2
Gly Leu Lys Pro Gly Val Asp Tyr Thr Ala Thr Val Tyr Ala Val (GLKPGVDYTATVYAV; also: biotinylated (place not given here)) [SEQ ID NO: 5],cell adhesion inhibitory activity (alanine scanning),[3],cell adhesion inhibitory activity was lost
Gly Leu Lys Pro Gly Val Asp Ala Thr Ile Thr Val Tyr Ala Val (GLKPGVDATITVYAV; also: biotinylated (place not given here)) [SEQ ID NO: 3],cell adhesion inhibitory activity (alanine scanning),[3],equal to or greater than the cell adhesion inhibitory activity of the peptide set forth in SEQ ID NO: 2; also recorded: much greater cell adhesion inhibitory activity compared to the peptide set forth in SEQ ID NO: 2
same,cell adhesion inhibitory activity (alanine scanning),[3]; listed as SEQ NO: 3,stronger cell adhesion inhibitory activity than did SEQ NO: 2
Gly Leu Lys Pro Gly Val Asp Tyr Ala Ile Thr Val Tyr Ala Val (GLKPGVDYAITVYAV; also: biotinylated (place not given here)) [SEQ ID NO: 4],cell adhesion inhibitory activity (alanine scanning),[3],cell adhesion inhibitory activity was lost
Gly Leu Lys Pro Gly Val Asp Tyr Thr Ile Thr Val Ala Ala Val (GLKPGVDYTITVAAV; also: biotinylated (place not given here)) [SEQ ID NO: 8],cell adhesion inhibitory activity (alanine scanning),[3],equal to or greater than the cell adhesion inhibitory activity of the peptide set forth in SEQ ID NO: 2
Gly Leu Lys Pro Gly Val Asp Tyr Thr Ile Thr Val Tyr Ala Val (GLKPGVDYTITVYAV; also: biotinylated (place not given here)) [SEQ ID NO: 2],cell adhesion inhibitory effect,[4],nearly equal to the activity of the known cell adhesion inhibitory peptide
same,cell adhesion inhibitory effect,[5],nearly equal to the activity of the known cell adhesion inhibitory peptide
same,cell adhesion inhibitory effect,"[3]; K562 cells in 0.1 mM Mn2+, fibronectin-coated plates, biotinylated peptide 50 to 200 μg/ml, 60 min, adherent cells counted",nearly equal to the activity of a known cell adhesion inhibitory peptide
same,cell adhesion inhibitory activity (alanine scanning),[3],cell adhesion inhibitory activity was noted
same,cell adhesion inhibitory action (number of spread cells),[1],exhibits no such action at all
same,cell adhesion inhibitory action (number of spread cells),[2],exhibits no such action at all
Gly Leu Lys Pro Gly Val Asp Tyr Thr Ile Thr Ala Tyr Ala Val (GLKPGVDYTITAYAV; also: biotinylated (place not given here)) [SEQ ID NO: 7],cell adhesion inhibitory activity (alanine scanning),[3],equal to or greater than the cell adhesion inhibitory activity of the peptide set forth in SEQ ID NO: 2
GRGDS [GRGDS peptide],rate of clearance from the circulation following administration,[6],fast
same,decomposition by enzyme,[7],liable to be decomposed by enzyme
same,inhibition of experimental metastasis of melanoma cells to the lung,melanoma cells,inhibits the experimental metastasis of melanoma cells to the lung
Gly Leu Lys Pro Gly Val Asp Tyr Thr Ile Ala Val Tyr Ala Val (GLKPGVDYTIAVYAV; also: biotinylated (place not given here)) [SEQ ID NO: 6],cell adhesion inhibitory activity (alanine scanning),[3],cell adhesion inhibitory activity was lost
